Where “and” joins values, the source holds several entries; their conditions need not be identical. Identical values can stand only once.
Key:
[1] = Solubility of azoxystrobin in three components solvent system; type: physicochemical
Description: Component (A1) and component (A2) were mixed and heated to a temperature in the range of 20° C. to 100° C. to obtain a solution. Respective amount of the biocide was charged to the above solution at a temperature in the range of 20° C. to 100° C. to obtain the solution containing biocide. Emulsifier and other optional ingredients were charged o to the above biocide containing solution to obtain the emulsifiable composition (C). It is evident from table 1 to 5 that the biocides can be solubilised in a combination of at least one component (A1) and at least one component (A2) and which can be further formulated to stable emulsion concentrate. It can be inferred from table 4 that the tebuconazole can be formulated to an emulsifiable concentrate compared to suspension concentrate or emulsion concentrate in aromatic solvent system. Further, table 5 discloses that a three components solvent system also aids in solubilizing the biocides or adding water to two-components solvent system can improve the solubility of the biocide(s).

[2] = Solubility of biocide in two-component solvent system (A1:A2); type: physicochemical
Description: Component (A1) and component (A2) were mixed and heated to a temperature in the range of 20° C. to 100° C. to obtain a solution. Respective amount of the biocide was charged to the above solution at a temperature in the range of 20° C. to 100° C. to obtain the solution containing biocide. Emulsifier and other optional ingredients were charged o to the above biocide containing solution to obtain the emulsifiable composition (C).

[3] = solvent system 2-phenylethanol : Formic acid, molar ratio 1:2
[4] = solvent system 2-phenylethanol : Formic acid, molar ratio 2:1
[5] = solvent system 2-phenylethanol : Methyl salicylate, molar ratio 1:1
[6] = solvent system 2-phenylethanol : Methyl salicylate, molar ratio 2:1
[7] = solvent system 4-methylcyclohexanol : Methyl salicylate, molar ratio 1:2
[8] = solvent system Cyclohexanol : D,L-Lactic acid, molar ratio 1:1
[9] = solvent system Thymol : Phenyl acetic acid, molar ratio 2:1
[10] = solvent system formic acid : Methyl salicylate, molar ratio 2:1

CO/C=C(/C(=O)OC)c1ccccc1Oc1cc(Oc2ccccc2C#N)ncn1 [Azoxystrobin]
Solubility of Azoxystrobin wt. % in total (C) ([1]; 2-Phenoxyethanol:Methyl Salicylate:Water (tap), molar ratio 1:1:0.5): 24 wt. %
Solubility of Azoxystrobin wt. % in total (C) ([1]; 2-Phenoxyethanol:Methyl salicylate:D,L-Lactic acid, molar ratio 1:1:2): 29 wt. %
Solubility of Azoxystrobin wt. % in total (C) ([1]; 2-Phenoxyethanol:Veratrole:D,L-Lactic acid, molar ratio 1:1:2): 21 wt. %
Solubility of Azoxystrobin wt. % in total (C) ([1]; 2-Phenoxyethanol:Veratrole:Water (tap), molar ratio 1:2:0.5): 25 wt. %
Solubility of Azoxystrobin wt. % in total (C) ([1]; 2-Phenylethanol:Methyl Salicylate:Water (tap), molar ratio 1:1:0.5): 25 wt. %
Solubility of Azoxystrobin wt. % in total (C) ([1]; 2-Phenylethanol:phenyl acetic acid:Water (tap), molar ratio 2:1:0.5): 25 wt. %
Solubility wt. % in total (C) ([2]; solvent system 2-phenoxyethanol : D,L-Lactic acid, molar ratio 1:1): 36 wt. %
Solubility wt. % in total (C) ([2]; solvent system 2-phenoxyethanol : D,L-lactic acid, molar ratio 1:2): 20 wt. %
Solubility wt. % in total (C) ([2]; solvent system 2-phenoxyethanol : Methyl salicylate, molar ratio 1:1): 19 wt. %
Solubility wt. % in total (C) ([2]; solvent system 2-phenoxyethanol : Veratrole, molar ratio 2:1): 23 wt. %
Solubility wt. % in total (C) ([2]; solvent system 2-phenylethanol : D,L-Lactic acid, molar ratio 1:1): 25 wt. %
Solubility wt. % in total (C) ([2]; solvent system 2-phenylethanol : D,L-Lactic acid, molar ratio 2:1): 22 wt. %
Solubility wt. % in total (C) [2, 3]: 20 wt. %
Solubility wt. % in total (C) [2, 4]: 20 wt. %
Solubility wt. % in total (C) [2, 5]: 27 wt. %
Solubility wt. % in total (C) ([2]; solvent system 2-phenylethanol : Methyl salicylate, molar ratio 1:2): 25 wt. % and 24 wt. %
Solubility wt. % in total (C) [2, 6]: 27 wt. % and 23 wt. %
Solubility wt. % in total (C) ([2]; solvent system 2-phenylethanol : Phenyl acetic acid, molar ratio 2:1): 25 wt. %
Solubility wt. % in total (C) ([2]; solvent system 4-isopropylbenzylalcohol : Phenyl acetic acid, molar ratio 2:1): 24 wt. %
Solubility wt. % in total (C) ([2]; solvent system 4-methylcyclohexanol : Hydroxy pivalic acid, molar ratio 2:1): 24 wt. %
Solubility wt. % in total (C) [2, 7]: 20 wt. %
Solubility wt. % in total (C) ([2]; solvent system Carvacrol : 2-ethylphenol, molar ratio 1:2): <49 wt. %
Solubility wt. % in total (C) [2, 8]: 20 wt. %
Solubility wt. % in total (C) ([2]; solvent system Cyclohexanol : D,L-Lactic acid, molar ratio 1:2): 20 wt. %
Solubility wt. % in total (C) ([2]; solvent system Cyclohexanol : Hydroxy pivalic acid, molar ratio 2:1): 21 wt. %
Solubility wt. % in total (C) ([2]; solvent system D,L-Lactic acid : 1,2-dimethoxy benzene, molar ratio 2:1): 32 wt. %
Solubility wt. % in total (C) ([2]; solvent system D,L-Lactic acid : 2-phenoxyethanol, molar ratio 1:1): 23 wt. %
Solubility wt. % in total (C) ([2]; solvent system D,L-Lactic acid : 4-acetylanisole, molar ratio 2:1): 22 wt. %
Solubility wt. % in total (C) ([2]; solvent system D,L-Lactic acid : 4-isopropylbenzyl alcohol, molar ratio 2:1): 33 wt. %
Solubility wt. % in total (C) ([2]; solvent system D,L-Lactic acid : Veratrole, molar ratio 2:1): 24 wt. %
Solubility wt. % in total (C) ([2]; solvent system Formic acid : 1,2-dimethoxy benzene, molar ratio 2:1): 49 wt. %
Solubility wt. % in total (C) ([2]; solvent system Thymol : (L)-menthol, molar ratio 1:1): 28 wt. %
Solubility wt. % in total (C) [2, 9]: 60 wt. %
Solubility wt. % in total (C) ([2]; solvent system formic acid : Methyl salicylate, molar ratio 1:2): 27 wt. %
Solubility wt. % in total (C) [2, 10]: 40 wt. %

CS(=O)(=O)c1ccc(C(=O)C2C(=O)CCCC2=O)c([N+](=O)[O-])c1 [Mesotrione]
Solubility wt. % in total (C) [2, 9]: 20 wt. %

CC(C)(C)C(O)(CCc1ccc(Cl)cc1)Cn1cncn1 (stereo not shown) [Tebuconazole]
Solubility wt. % in total (C) ([2]; solvent system 2-phenylethanol : Formic acid, molar ratio 1:1): 40 wt. %
Solubility wt. % in total (C) [2, 3]: 40 wt. %
Solubility wt. % in total (C) [2, 4]: 35 wt. %
Solubility wt. % in total (C) [2, 5]: 38 wt. %
Solubility wt. % in total (C) [2, 6]: 42 wt. %
Solubility wt. % in total (C) [2, 7]: 35 wt. %
Solubility wt. % in total (C) [2, 8]: 47 wt. %
Solubility wt. % in total (C) ([2]; solvent system Cyclohexanol : Methyl salicylate, molar ratio 1:2): 38 wt. %
Solubility wt. % in total (C) [2, 9]: 36 wt. %
Solubility wt. % in total (C) [2, 10]: 50 wt. %

From patent US20230301298A1, “Biocide Compositions” (BASF SE, priority 2020, published 2023)
